Drawing on US20230416262A1, “TRPML MODULATORS” (Casma Therapeutics, Inc., priority 2020, published 2023), this text covers EC50 for 14 molecules.

A value given as a limit tells only on which side of the number the result lay.

Usually EC50 stands for the concentration at which the effect is half-maximal.

The experiment has as its system TFEB. The experiment can be described thus: TFEB nuclear translocation assay. The note with it: Homo sapiens; HeLa wt or HeLa TRPML1 KO cells, treated for 2 hrs; ratio of nuclear to ring-region TFEB intensity. It is filed as cell-based. How it is done: For the TFEB nuclear translocation assay, HeLa wt or HeLa TRPML1 KO cells were plated at 2700 cells/well into black-walled, 384-well Cell carrier Ultra tissue culture treated plates in complete media and incubated overnight. The next day, cells are treated for 2 hrs with compounds and incubated at 37° C. Cells were then fixed for 30 minutes at room temperature in 4% final PFA and washed five times with 90 μL PBS. PBS is aspirated from the wells and the cells are blocked with 7.5 μL blocking buffer (1.1 PBS/Odyssey block buffer containing 0.1% triton x-100 and 1% goat serum). After 30-60 minutes of block, 7.5 μL of primary anti-TFEB (rabbit) antibody is added for a final dilution of 1:200 antibody in 15 μL blocking buffer. Plates are incubated overnight at 4° C. The following day, plates are washed again into PBS, 90 μL with 5 washes, all PBS is aspirated from the wells and the cells are incubated for 1 hr in 1:1000 goat-anti rabbit Alexa 488 secondary antibody, also containing 10 μg/mL Hoechst 33342. After the 1 hr RT incubation, plates are washed a final time into PBS, sealed with foil and imaged with an automated epifluorescence microscopy (PerkinElmer Operetta CLS). Four different fields were imaged per well using ×20 magnification for DAPI and FITC filter sets. Images were quantified using PerkinElmer Harmony software, briefly: apply flatfield correction (basic/advanced) for input images. Use the Find Nuclei building block with channel set at Hoechst to find the nuclei. Use the Find cytoplasm building block with channel set to Alexa 488 to find the cytoplasm. Use select cell region with Channel set at Alexa 488 and region of interest as Nuclei and define outer border at 0 μm and inner at 45 μm to cover complete nuclei. Use select cell region with Channel set at Alexa 488 and region of interest as ring region and define outer border at −5 μm and inner at 0 μm to define a ring around the nucleus. Use the find calculate intensity parameter to calculate intensity of the nuclear region and the ring region. Define results as Number of nuclei and ratio of A/B where A is Intensity of Nuclei and B is intensity of the ring region.
For `CN(C)S(=O)(=O)c1ccc(S(=O)(=O)N2CC3(CCCC3)c3cnccc32)cc1` [Compound I-70, 4-({1′,2′-dihydrospiro[cyclopentane-1,3′-pyrrolo[3,2-c]pyridin]-1′-yl}sulfonyl)-N,N-dimethylbenzene-1-sulfonamide], the EC50 is not below 10 µM.
For the molecule `CN(C)S(=O)(=O)c1ccc(S(=O)(=O)N2CC3(CCCC3)c3cccnc32)cc1` [Compound I-71, 4-({1′,2′-dihydrospiro[cyclopentane-1,3′-pyrrolo[2,3-b]pyridin]-1′-yl}sulfonyl)-N,N-dimethylbenzene-1-sulfonamide], the EC50 was not below 10 µM.
Then `CN(C)S(=O)(=O)c1ccc(S(=O)(=O)N2CC3(CCC(O)CC3)c3ccccc32)cc1` (centres unmarked) [Compound I-72, 4-({4-hydroxy-1′,2′-dihydrospiro[cyclohexane-1,3′-indol]-1′-yl}sulfonyl)-N,N-dimethylbenzene-1-sulfonamide], with 2.01 to 8 µM.
Then `Cc1cccc(-n2cc(S(=O)(=O)N3CC4(CCCC4)c4ccccc43)cn2)c1` [Compound I-75, 1′-{[1-(3-methylphenyl)-1H-pyrazol-4-yl]sulfonyl}-1′,2′-dihydrospiro[cyclopentane-1,3′-indole]], with 8.01 to 9.99 µM; and `CN(C)S(=O)(=O)c1ccc(S(=O)(=O)N2CC3(CCOC3)c3ccccc32)cc1` (centres unmarked) [Compound I-76, 4-({1,2-dihydrospiro[indole-3,3′-oxolan]-1-yl}sulfonyl)-N,N-dimethylbenzene-1-sulfonamide], with 2.01 to 8 µM; and `CN(C)S(=O)(=O)c1ccc(S(=O)(=O)N2CC3(CCCO3)c3ccccc32)cc1` (centres unmarked) [Compound I-77, 4-({1,2-dihydrospiro[indole-3,2′-oxolan]-1-yl}sulfonyl)-N,N-dimethylbenzene-1-sulfonamide], with not above 2 µM.
As for `CN(C)S(=O)(=O)c1ccc(S(=O)(=O)N2CC3(CCCC3)c3ncccc32)cc1` [Compound I-78, N,N-dimethyl-4-(spiro[cyclopentane-1,3′-pyrrolo[3,2-b]pyridin]-1′(2′H)-ylsulfonyl)benzenesulfonamide], the EC50 was in the range of 2.01 to 8 µM.
In the case of `CN1CCC2(CC1)CN(S(=O)(=O)Cc1ccccc1)c1ccccc12` [Compound I-82, 1′-methyl-1-phenylmethanesulfonyl-1,2-dihydrospiro[indole-3,4′-piperidine]], the EC50 is not below 10 µM.
Then `CN1CCC2(CC1)CN(S(=O)(=O)c1ccc(S(=O)(=O)N(C)C)cc1)c1ccccc12` [Compound I-84, N,N-dimethyl-4-({1′-methyl-1,2-dihydrospiro[indole-3,4′-piperidin]-1-yl}sulfonyl)benzene-1-sulfonamide], with not below 10 µM.
The result for `O=S(=O)(Cc1ccccc1)N1CC2(CCN(CC(F)(F)F)CC2)c2ccccc21` [Compound I-85, 1-phenylmethanesulfonyl-1′-(2,2,2-trifluoroethyl)-1,2-dihydrospiro[indole-3,4′-piperidine]] reads not below 10 µM; that for `CN1CCC2(C1)CN(S(=O)(=O)Cc1ccccc1)c1ccccc12` (centres unmarked) [Compound I-88, 1′-methyl-1-phenylmethanesulfonyl-1,2-dihydrospiro[indole-3,3′-pyrrolidine]], not below 10 µM.
On to `CN1CCC2(C1)CN(S(=O)(=O)c1ccc(C(F)F)cc1)c1ccccc12` (centres unmarked) [Compound I-89], for which the EC50 was not below 10 µM.
The result for `CN1CCC2(C1)CN(S(=O)(=O)c1ccc(S(=O)(=O)N(C)C)cc1)c1ccccc12` (centres unmarked) [Compound I-90, N,N-dimethyl-4-({1′-methyl-1,2-dihydrospiro[indole-3,3′-pyrrolidin]-1-yl}sulfonyl)benzene-1-sulfonamide] reads not below 10 µM; that for `CN(C)S(=O)(=O)c1ccc(S(=O)(=O)N2CC3(CCN(CC(F)(F)F)C3)c3ccccc32)cc1` (centres unmarked) [Compound I-93, N,N-dimethyl-4-{[1′-(2,2,2-trifluoroethyl)-1,2-dihydrospiro[indole-3,3′-pyrrolidin]-1-yl]sulfonyl}benzene-1-sulfonamide], not above 2 µM.
